Assay results from PMC2889835 (PLoS ONE, 2010).
Entries after “also recorded” stand apart in the source; their conditions may differ. Read-outs that look alike come from different tables or passages of the source. Starred links: 1 amine or outer side, 2 acyl side, 3 side chain; linkers in the order of their positions; H or OH if unused. Positions of bridges follow the written chain, without caps; N, C: chain ends. Non-standard residues stand in square brackets, D forms with d. Residues, ends and D or L forms follow the SMILES beside them. Chains are numbered I, II in the order given. Actinocin(9to1) = Cc1c2oc3c(C)ccc(C(=O)[*:1])c3nc-2c(C(=O)[*:2])c(N)c1=O; NMeV = CN[C@H](C(=O)O)C(C)C; Sar = CNCC(=O)O

How the values were obtained:
RBV uptake = format: cell-based
VSV-GFP or SeV-GFP [1] = format: cell-based, vesicular stomatitis virus; Sendai virus
VSV-GFP [2] = experiment: microbe, parasite or virus in culture; format: cell-based; details: Vesicular stomatitis virus; for IC50: read-out: IC50 VSV-GFP; for IC90: read-out: IC90 VSV-GFP
SeV-GFP [3] = experiment: microbe, parasite or virus in culture; format: cell-based, Sendai virus; details: Respirovirus muris; for IC50: read-out: IC50 SeV-GFP; for IC90: read-out: IC90 SeV-GFP
VSV-GFP [4] = format: cell-based, vesicular stomatitis virus
SeV-GFP [5] = format: cell-based, Sendai virus
[6] = system: BHK21, BSRT7, HeLa, A549, 4T1, HEp2 and Vero cells
canine distemper virus = details: Vero cells; cited from earlier work
[7] = system: BHK21, BSRT7, HeLa, A549, 4T1, HEp2 and Vero cells; experiment: Cell viability assays (MTT, CellTiter-Glo, trypan blue dye exclusion); details: RBV up to 1000 µM, 24 h, all seven cell lines
VSV-GFP or SeV-GFP [8] = format: cell-based, vesicular stomatitis virus; Sendai virus; remark: listed apart in the source
[9] = system: Vero, HepG2, MDCK and other cell lines; details: cited from earlier work

SMILES: Cc1c2oc3c(C)ccc(C(=O)N[C@@H]4C(=O)N[C@H](C(C)C)C(=O)N5CCC[C@H]5C(=O)N(C)CC(=O)N(C)[C@@H](C(C)C)C(=O)O[C@@H]4C)c3nc-2c(C(=O)N[C@@H]2C(=O)N[C@H](C(C)C)C(=O)N3CCC[C@H]3C(=O)N(C)CC(=O)N(C)[C@@H](C(C)C)C(=O)O[C@@H]2C)c(N)c1=O [ActD, actinomycin D] (I: T[dV]P[Sar][NMeV] / II: T[dV]P[Sar][NMeV]; ester I:1-I:C, II:1-II:C; linker I:N-II:N via Actinocin(9to1))
- Effect on RBV uptake (RBV uptake): did not inhibit RBV uptake
- Effect on viral replication when used alone (VSV-GFP or SeV-GFP [1]): somewhat mild effect on viral replication
- Neutralizing effect on antiviral activity of RBV (VSV-GFP or SeV-GFP [1]): clear neutralizing effect on RBV

SMILES: O=[N+]([O-])c1ccc(CSc2ncnc3c2ncn3[C@@H]2O[C@H](CO)[C@@H](O)[C@H]2O)cc1 [NBMPR, S-(4-Nitrobenzyl)-6-thioinosine]
- Effect on RBV uptake (RBV uptake): RBV uptake was inhibited in most cell lines

SMILES: NC(=O)c1ncn([C@@H]2O[C@H](CO)[C@@H](O)[C@H]2O)n1 [RBV, 1-ß-D-ribofuranosyl-1,2,4-triazole-3-carboxamide]
- IC50 (VSV-GFP [2]; 4T1, 24 h): 20 µM
- IC90 (VSV-GFP [2]; 4T1, 24 h): 60 µM
- IC50 (VSV-GFP [2]; A549, 24 h): 190 µM
- IC90 (VSV-GFP [2]; A549, 24 h): 610 µM
- IC50 (VSV-GFP [2]; BHK-21, 24 h): 275 µM
- IC90 (VSV-GFP [2]; BHK-21, 24 h): 1100 µM
- IC50 (VSV-GFP [2]; BSR-T7, 24 h): 10 µM
- IC90 (VSV-GFP [2]; BSR-T7, 24 h): 40 µM
- IC50 (VSV-GFP [2]; HEp-2, 24 h): 70 µM
- IC90 (VSV-GFP [2]; HEp-2, 24 h): 310 µM
- IC50 (VSV-GFP [2]; HeLa, 24 h): 70 µM
- IC90 (VSV-GFP [2]; HeLa, 24 h): 150 µM
- IC50 (VSV-GFP [2]; Vero, 24 h): 2250 µM
- IC90 (VSV-GFP [2]; Vero, 24 h): > 3000 µM
- IC50 (SeV-GFP [3]; 4T1, 48 h): 10 µM
- IC90 (SeV-GFP [3]; 4T1, 48 h): 18 µM
- IC50 (SeV-GFP [3]; A549, 48 h): 90 µM
- IC90 (SeV-GFP [3]; A549, 48 h): 320 µM
- IC50 (SeV-GFP [3]; BHK-21, 48 h): 190 µM
- IC90 (SeV-GFP [3]; BHK-21, 48 h): 850 µM
- IC50 (SeV-GFP [3]; BSR-T7, 48 h): 16 µM
- IC90 (SeV-GFP [3]; BSR-T7, 48 h): 40 µM
- IC50 (SeV-GFP [3]; HEp-2, 48 h): 12 µM
- IC90 (SeV-GFP [3]; HEp-2, 48 h): 45 µM
- IC50 (SeV-GFP [3]; HeLa, 48 h): 40 µM
- IC90 (SeV-GFP [3]; HeLa, 48 h): 110 µM
- IC50 (SeV-GFP [3]; Vero, 48 h): 1550 µM
- IC90 (SeV-GFP [3]; Vero, 48 h): > 3000 µM
- Effect on VSV replication (GFP expression) (VSV-GFP [4]): effectively inhibited VSV
- Effect on VSV-driven GFP expression (VSV-GFP [4]): surprisingly mild effect; also recorded: somewhat intermediate effect
- Effect on SeV replication compared with VSV (SeV-GFP [5]): inhibited SeV replication to a greater degree than VSV
- Long-term accumulation of RBV [6]: markedly decreased levels of RBV accumulation
- Short-term RBV uptake [6]: somewhat similar levels of RBV import
- IC50 (canine distemper virus): 20 to 50 µM
- IC80 (canine distemper virus): 40 to 110 µM
- Effect on cell viability (cellular toxicity) [7]: did not produce any statistically significant decrease in cell viability; also recorded: did not produce any significant cytotoxicity

SMILES: Nc1nc2c(ncn2[C@@H]2O[C@H](CO)[C@@H](O)[C@H]2O)c(=O)[nH]1 [guanosine]
- Effect on virus replication when used alone (VSV-GFP or SeV-GFP [8]): no significant effect on virus replication
- Neutralizing effect on antiviral activity of RBV (VSV-GFP or SeV-GFP [8]): clear (almost 100%) neutralizing effect on RBV
- Excess of physiological GTP levels [9]: at least 4 fold
